Measured values: patent US20080292550A1, “Fluorinated 3'-Deoxythymidine Derivatives, a Method for Their Preparation and Their Use” (MAX-DELBRUECK-CENTRUM FUER MOLEKULARE MEDIZIN, priority 2005, published 2008)
“Also recorded” adds a separate entry of the source. Where two headings read alike, the source gives them in different places.

Key:
melanoma = assay: Organ activities in melanoma-bearing nude mice
Source text: A prognosis as to the tumor/background ratio in a tumor image can be made by means of the tumor/blood radioactivity ratio of a tracer in a tumor model.

[1] = test system: non-parvicellular lung tumor; assay: Organ activities in lung tumor-bearing nude mice; conditions: about 0.5 MBq non-quenched tracer i.v.
[2] = quenched product
B cell lymphoma = conditions: 0.1 MBq, B cell lymphoma mouse model; cited from earlier work
fibrosarcoma = conditions: about 2.5 MBq, fibrosarcoma mouse model; cited from earlier work
[3] = Wagner et al., Cancer Research 2003; cited from earlier work
[4] = about 0.5 MBq quenched tracer i.v., after 60 min

[N-]=[N+]=N[C@H]1C[C@H](n2cc(C([18F])[18F])c(=O)[nH]c2=O)O[C@@H]1CO [α,α-^18F2-AZT, 5,5-^18F-difluoro-3′-deoxy-3′-azidothymidine]
increase of the fluoride concentration (isotonic NaCl solution at 21° C., over 4 hours, quenched with triethylamine): scarcely any increase
stability in isotonic NaCl solution (isotonic NaCl solution, room temperature, before quenching step): stable
increase of the F ion concentration (isotonic NaCl solution, room temperature, within 1 hour, before quenching step): 3 to 4.5%
tumor/blood radioactivity ratio (melanoma; [4]): 3.2
tumor/organ radioactivity ratios (melanoma; [4]): high
storage of 18F in bone (melanoma; about 0.5 MBq quenched tracer i.v., compared with non-quenched product): lower
PET imaging of tumor (melanoma; melanoma mouse model): allows PET imaging of melanoma in a mouse model
passage of the blood-brain barrier (melanoma; mouse animal experiments): passes the blood-brain barrier; also recorded: capable of passing the blood-brain barrier
storage in tumor (melanoma; mouse model, lung tumor and melanoma (summary)): stored in lung tumor and in melanoma
absorption of 18F in bone tissue ([1]; 30 and 60 min): particularly high
storage of activity in organs ([1]; organ activities after 30 min and 60 min): activity was stored in the tumor, in the spleen and in the colon
stability in serum ([2]; serum at room temperature (21° C.)): A similar result
stability in serum ([2]; serum in an incubator at 37° C.): markedly improved stability

Cc1cn([C@H]2C[C@H]([18F])[C@@H](CO)O2)c(=O)[nH]c1=O [^18F-FLT, 3′-^18F-fluoro-3′-deoxythymidine]
tumor/blood radioactivity ratio (B cell lymphoma): about 7
tumor/blood radioactivity ratio (fibrosarcoma): 1.8
storage in the spleen of mice [3]: Marked storage
